PMC10112521, “High-throughput AR dimerization assay identifies androgen disrupting chemicals and metabolites” (Frontiers in Toxicology, 2023)
Where two headings read alike, the source gives them in different places.

Experiments:
[1] = system: AR2 cells (HepG2-AR2); experiment: Alamar Blue (resazurin) post hoc cell viability / cytotoxicity assay in AR2 cells; conditions: spid Viability, sheet antagonist_fits; for hill_tp (Hill model top): 0 where win_model is Constant
Description: (§1) For antagonist mode and cytotoxicity data, well-level normalized response (resp) was calculated as: resp=100 * RLU−bval/pval−bval where pval is the median RLU value of the MEC positive control wells (minimum four wells).

[2] = system: human AR (LBD and AF2 domains) and the RID of human SRC2; set-up: method as in U.S. EPA, 2002b; conditions: activity call, agonist mode, 2 h; invitroDBv3.4 ref U.S. EPA, 2002b; cited from earlier work
[3] = system: human AR (LBD and AF2 domains) and the RID of human SRC2; set-up: method as in U.S. EPA, 2002b; conditions: cited from earlier work
[4] = system: full-length human AR and the receptor interacting domain (RID) of SRC1; set-up: method as in U.S. EPA, 2002b; conditions: cited from earlier work
[5] = system: AR; set-up: method as in Kleinstreuer et al., 2017; conditions: 2017, cited from earlier work; for Agonist reference: AR agonist reference class ref Kleinstreuer et al.; for Antagonist reference: AR antagonist reference class ref Kleinstreuer et al.
[6] = molecular target: T1, human AR (Homo sapiens, UniProt P10275); experiment: AR2 assay, antagonist mode: disruption of R1881 (10 nM)-induced AR homodimerization in HepG2-AR2 cells; format: cell-based; conditions: for AR2 antagonist: activity call, antagonist mode, 18 h
T1 sequence (P10275 1-920) 1: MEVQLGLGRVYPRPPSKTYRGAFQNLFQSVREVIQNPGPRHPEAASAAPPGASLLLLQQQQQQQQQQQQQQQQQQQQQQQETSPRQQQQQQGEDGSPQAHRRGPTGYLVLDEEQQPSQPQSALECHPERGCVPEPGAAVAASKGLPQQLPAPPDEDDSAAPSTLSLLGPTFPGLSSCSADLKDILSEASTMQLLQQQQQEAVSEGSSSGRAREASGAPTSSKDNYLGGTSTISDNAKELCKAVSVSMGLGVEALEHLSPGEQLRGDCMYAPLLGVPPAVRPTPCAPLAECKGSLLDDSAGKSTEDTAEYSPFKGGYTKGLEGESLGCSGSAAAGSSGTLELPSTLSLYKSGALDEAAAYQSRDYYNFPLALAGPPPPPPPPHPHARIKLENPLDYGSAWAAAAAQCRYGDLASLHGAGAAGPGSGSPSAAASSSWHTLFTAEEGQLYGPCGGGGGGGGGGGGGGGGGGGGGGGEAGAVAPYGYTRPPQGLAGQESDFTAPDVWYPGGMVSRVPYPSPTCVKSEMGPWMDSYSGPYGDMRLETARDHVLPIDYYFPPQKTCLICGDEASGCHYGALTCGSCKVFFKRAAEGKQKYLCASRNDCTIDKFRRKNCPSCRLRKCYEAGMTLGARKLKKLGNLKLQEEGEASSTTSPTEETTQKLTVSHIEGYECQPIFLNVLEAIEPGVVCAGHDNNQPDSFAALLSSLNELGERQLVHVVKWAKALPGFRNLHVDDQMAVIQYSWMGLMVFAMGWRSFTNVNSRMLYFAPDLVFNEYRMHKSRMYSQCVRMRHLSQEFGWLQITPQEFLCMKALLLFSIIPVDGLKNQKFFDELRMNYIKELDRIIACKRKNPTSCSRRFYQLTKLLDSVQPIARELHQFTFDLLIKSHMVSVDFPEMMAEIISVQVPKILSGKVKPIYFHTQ
T1 sequence (P10275 1-920) 2: T1 sequence (P10275 1-920) 1

[7] = system: AR2 cells (HepG2-AR2)
Description: as §1

[8] = molecular target: T1, human AR; experiment: AR2 assay, agonist mode: ligand-dependent AR homodimerization (NanoBiT luciferase complementation) in stable HepG2-AR2 cells; format: cell-based; conditions: for AR2 agonist: activity call, agonist mode; for hill_tp / max_med / win_model / hill_gw: sheet agonist_fits; for hill_tp: Hill model top (efficacy); for hill_tp / hill_gw: 0 given where win_model is Constant; for max_med: maximum median response; for win_model: winning concentration-response model (Constant, Hill, Gain-Loss); for hill_gw: Hill model gain slope (Hill coefficient);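 on hill tp: Log2 fold change of luminescence over DMSO vehicle wells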;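 on max med: Log2 fold change of luminescence over DMSO vehicle wells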
[9] = molecular target: T1, human AR; experiment: cell-based; set-up: species or system AR2 cells (HepG2-AR2); NanoLuc complementation AR homodimerization, antagonist mode, loss of agonist-induced luminescence, AC50 by Hill fit; conditions: hill_ga, antagonist mode, 10 nM agonist stimulus, 18 h, no CYP expressed
[10] = molecular target: T1, human AR; experiment: cell-based; set-up: species or system AR2 cells (HepG2-AR2); NanoLuc complementation AR homodimerization, agonist mode, luminescence gain, AC50 by Hill fit; conditions: hill_ga, spid=Bgal; agonist mode, 18 h, no CYP expressed
[11] = spid AR_antagonist, sheet antagonist_fits
[12] = spid AR_antagonist, sheet antagonist_fits, 0 where win_model is Constant
[13] = activity call, 8 h, single protocol detects agonists and antagonists, invitroDBv3.4 ref U.S. EPA, 2002b
[14] = activity call, 16 h, single protocol detects agonists and antagonists, invitroDBv3.4 ref U.S. EPA, 2002b
[15] = activity call, antagonist mode, 2 h, invitroDBv3.4 ref U.S. EPA, 2002b
[16] = spid AR_antagonist, sheet antagonist_fits, Hill fit parameter

SMILES	max_med (maximum median response) [1]	hill_tp (Hill model top) [1]	UPitt agonist [2]	Agonist reference [5]	Antagonist reference [5]	hill_tp (Hill model top) [6]	max_med (maximum median response) [6]	win_model (winning concentration-response model) [6, 11]	hill_gw (Hill model slope) [6, 12]	hill_ga (Hill model log AC50) [7]	hill_tp [8]	max_med [8]	win_model [8]	OT 8 hr [4, 13]	OT 16 hr [4, 14]	UPitt antagonist [3, 15]	Antagonist reference ([5]; Supplementary Table S1)	AR2 antagonist [6]	AC50 ([9]; spid=Bgal)	AC50 ([9]; spid=No_RNA)	other results
C[C@]12CCC(=O)C=C1CC[C@@H]1[C@@H]2CC[C@@]2(C)[C@H]1CC[C@]2(C)O [17-Methyltestosterone]	23.6208	30.9505	0	Strong	Inactive	–	–	–	–	–	–	–	–	–	–	–	–	–	–	–	UPitt antagonist [3]: 0; OT 8 hr [4]: 1; OT 16 hr [4]: 1; Agonist reference ([5]; Supplementary Table S1): Strong
CCCCNC(=O)n1c(NC(=O)OC)nc2ccccc21 [Benomyl]	28.9418	26.9649	0	Inactive	–	30.7847	31.5571	Hill	3.063	0.6267	0	0.04446	Constant	0	1	–	–	–	–	–	AR2 agonist ([8]; 18 h): 0
CC(O)(CS(=O)(=O)c1ccc(F)cc1)C(=O)Nc1ccc(C#N)c(C(F)(F)F)c1 (centres unmarked) [Bicalutamide]	19.8696	21.5759	–	–	Strong	–	–	–	–	–	–	–	–	1	1	1	Strong	–	–	–	hill_tp (Hill model top) ([1]; listed as BICAL): 57.2356; max_med (maximum median response) ([1]; listed as BICAL): 25.4903
CC(C)(c1ccc(O)cc1)c1ccc(O)cc1 [Bisphenol A]	20.3748	26.326	–	–	Moderate	–	–	Hill	1.098	–	0.2654	0.1199	Gain-Loss	0	1	1	Moderate	1	13.1 µM	15.9 µM	max_med (maximum median response) [6, 11]: 101.007; hill_tp (Hill model top) [6, 12]: 118.275; activity call in agonist mode ([8]; 128-chemical evaluation, 18 h, active = maximal median response >5*bmad): tested negative; hill_gw [8]: 0.5365; AC50 [10]: > 99.9 µM
COC(=O)Nc1nc2ccccc2[nH]1 [Carbendazim]	17.1488	11.742	0	Inactive	–	18.0536	16.7598	Hill	8	1.227	0	0.02367	Constant	0	1	–	–	–	–	–	AR2 agonist ([8]; 18 h): 0
CC(=O)O[C@]1(C(C)=O)CC[C@H]2[C@@H]3C=C(Cl)C4=CC(=O)[C@@H]5C[C@@H]5[C@]4(C)[C@H]3CC[C@@]21C [Cyproterone acetate]	16.8337	12.2685	1	Weak	Moderate	–	–	–	–	–	–	–	–	1	1	1	Moderate	–	–	–	Agonist reference ([5]; Supplementary Table S1): Weak
CC#C[C@]1(O)CC[C@H]2[C@@H]3CCC4=CC(=O)CCC4=C3[C@@H](c3ccc(N(C)C)cc3)C[C@@]21C [Mifepristone]	9.555	0	–	–	Strong	–	–	–	–	–	–	–	–	1	1	1	Strong	–	–	–	–
CC1(C)C(C=C(Cl)Cl)C1C(=O)OCc1cccc(Oc2ccccc2)c1 (centres unmarked) [Permethrin]	5.481	0	0	Inactive	–	63.3496	53.132	Hill	1.786	0	0	0.006626	Constant	0	0	–	–	–	27.5 µM	47.3 µM	AR2 agonist ([8]; 18 h): 0
CC12CC1(C)C(=O)N(c1cc(Cl)cc(Cl)c1)C2=O (centres unmarked) [Procymidone]	14.9874	19.1789	–	–	Weak	–	95.0019	Hill	0.938	-1.506	0.2332	0.2214	Hill	0	0	1	Weak	1	3.84 µM	4.23 µM	hill_gw [8]: 8; AC50 [10]: > 99.9 µM
CCCC1COC(Cn2cncn2)(c2ccc(Cl)cc2Cl)O1 (centres unmarked) [Propiconazole]	5.206	0	–	–	Weak	116.132	96.3637	Hill	1.532	–	0	0.05395	Constant	1	1	1	Weak	1	33.8 µM	32.2 µM	–
C[C@H]1CCCC(=O)CCC/C=C/c2cc(O)cc(O)c2C(=O)O1 [Zearalenone]	41.4682	–	–	–	Weak	–	–	–	–	–	0	0.2969	Constant	0	0	1	Weak	1	9.73 µM	7.46 µM	hill_tp (Hill model top of curve) ([1]; Hill fit parameter): 49.8014; max_med (maximum median response) [6, 11]: 103.904; win_model (winning curve-fit model) ([6]; spid AR_antagonist, sheet antagonist_fits, Constant = no concentration response): Hill; hill_gw (Hill model slope/Hill coefficient) [6, 16]: 2.042; hill_tp (Hill model top of curve) [6, 16]: 105.112
